pIC50: −log10 of the molar value.

In general, pIC50 refers to the IC50 on a negative log10 scale, so that one unit is a factor of ten.

The target of the assay is T1, recombinant human GR (Homo sapiens, UniProt P04150).
T1 construct: purchased Panvera/Invitrogen P2812 (kit P2893)
T1 sequence (P04150 1-777): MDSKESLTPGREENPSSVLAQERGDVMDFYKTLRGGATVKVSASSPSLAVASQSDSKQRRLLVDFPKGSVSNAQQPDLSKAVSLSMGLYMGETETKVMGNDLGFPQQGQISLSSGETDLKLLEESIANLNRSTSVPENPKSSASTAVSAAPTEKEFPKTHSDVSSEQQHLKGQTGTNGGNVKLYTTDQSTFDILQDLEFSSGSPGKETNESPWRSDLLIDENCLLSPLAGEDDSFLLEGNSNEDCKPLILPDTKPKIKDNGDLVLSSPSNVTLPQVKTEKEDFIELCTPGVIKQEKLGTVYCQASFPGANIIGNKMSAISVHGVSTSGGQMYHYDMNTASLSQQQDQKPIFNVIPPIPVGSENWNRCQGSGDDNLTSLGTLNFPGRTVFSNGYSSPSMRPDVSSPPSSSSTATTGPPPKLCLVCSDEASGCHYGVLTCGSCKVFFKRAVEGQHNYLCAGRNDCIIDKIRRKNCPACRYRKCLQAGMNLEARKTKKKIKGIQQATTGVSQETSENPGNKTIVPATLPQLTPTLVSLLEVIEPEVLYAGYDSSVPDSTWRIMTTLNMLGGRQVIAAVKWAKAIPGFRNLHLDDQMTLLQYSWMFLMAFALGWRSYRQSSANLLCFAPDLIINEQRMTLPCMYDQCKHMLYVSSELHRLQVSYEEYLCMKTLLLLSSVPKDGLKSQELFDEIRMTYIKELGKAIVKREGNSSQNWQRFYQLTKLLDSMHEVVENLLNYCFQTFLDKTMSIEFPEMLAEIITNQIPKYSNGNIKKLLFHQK
Nature of the assay: Human Glucocorticoid Receptor (GR) Assay, fluorescence polarization. As to conditions: GS Red tracer, 2 hours at room temperature, 100% control 10 μM Dexamethasone, read-out: Inhibition of GR binding, IC50. The method, then:
Human Glucocorticoid Receptor (GR) Assay The assay is based on a commercial kit from Panvera/Invitrogen (Part number P2893). The assay technology is fluorescence polarization. The kit utilises recombinant human GR (Panvera, Part number P2812), a Fluoromone™ labelled tracer (GS Red, Panvera, Part number P2894) and a Stabilizing Peptide 10× (Panvera, Part number P2815). The GR and Stabilizing Peptide reagents are stored at −70° C. while the GS Red is stored at −20° C. Also included in the kit are 1M DTT (Panvera, Part number P2325, stored at −20° C.) and GR Screening buffer 10× (Panvera, Part number P2814, stored at −70° C. initially but once thawed stored at room temperature). Avoid repeated freeze/thaws for all reagents. The GR Screening buffer 10× comprises 100 mM potassium phosphate, 200 mM sodium molybdate, 1 mM EDTA and 20% DMSO. Test compounds (1 μL) and controls (1 μL) in 100% DMSO were added to black polystyrene 384-well plates (Greiner low volume black flat-bottom, part number 784076). 0% control was 100% DMSO and 100% control was 10 μM Dexamethasone. Background solution (8 μL; assay buffer 10×, Stabilizing Peptide, DTT and ice cold MQ water) was added to the background wells. GS Red solution (7 μL; assay buffer 10×, Stabilizing Peptide, DTT, GS Red and ice cold water) was added to all wells except background wells. GR solution (7 μL; assay buffer 10×, Stabilizing Peptide, DTT, GR and ice cold water) was added to all wells. The plate was sealed and incubated in a dark at room temperature for 2 hours. The plate was read in an Analyst plate reader (LJL Biosystems/Molecular Devices Corporation) or other similar plate reader capable of recording fluorescence polarization (excitation wavelength 530 nm, emission wavelength 590 nm and a dichroic mirror at 561 nm).
In general terms: Polarisation of emitted light reports the rotation of a fluorescent probe.

With `CC1=C[C@@H]2[C@H]([C@@H](O)C[C@@]3(C)[C@H]2CC[C@]3(OC(=O)c2cocn2)C(=O)SCF)[C@@]2(C)Cc3cnn(-c4ccc(F)nc4)c3C=C12` [Example 14, (1R,3aS,3bS,10aR,10bS,11S,12aS)-1-{[(fluoromethyl)sulfanyl]carbonyl}-7-(6-fluoropyridin-3-yl)-11-hydroxy-5,10a,12a-trimethyl-1,2,3,3a,3b,7,10,10a,10b,11,12,12a-dodecahydrocyclopenta[5,6]naphtho [1,2-f]indazol-1-yl 1,3-oxazole-4-carboxylate], the pIC50 was 8.54.
The figure for `COCC(=O)O[C@]1(C(=O)SCF)CC[C@H]2[C@@H]3C=CC4=Cc5c(cnn5-c5ccc(F)nc5)C[C@]4(C)[C@H]3[C@@H](O)C[C@@]21C` [Example 4, (1R,3aS,3bS,10aR,10bS,11S,12aS)-1-{[(Fluoromethyl)sulfanyl]carbonyl}-7-(6-fluoropyridin-3-yl)-11-hydroxy-10a,12a-dimethyl-1,2,3,3a,3b,7,10,10a,10b,11,12,12a-dodecahydrocyclopenta[5,6]naphtho[1,2-f]indazol-1-yl methoxyacetate] is 9.10; for `CC1=C[C@@H]2[C@H]([C@@H](O)C[C@@]3(C)[C@H]2C[C@@H](C)[C@]3(OC(=O)c2ccco2)C(=O)SCC#N)[C@@]2(C)Cc3cnn(-c4ccccc4)c3C=C12` [Example 18, (1R,2R,3aS,3bS,10aR,10bS,11S,12aS)-1-{[(cyanomethyl)sulfanyl]carbonyl}-11-hydroxy-2,5,10a,12a-tetramethyl-7-phenyl-1,2,3,3a,3b,7,10,10a,- 10b,11,12,12a-dodecahydro-cyclopenta[5,6]naphtho[1,2-f]indazol-1-yl furan-2-carboxylate] it is 7.92; for `CC1=C[C@@H]2[C@H]([C@@H](O)C[C@@]3(C)[C@H]2CC[C@]3(OC(=O)C2CC2)C(=O)SCF)[C@@]2(C)Cc3cnn(-c4ccc(F)nc4)c3C=C12` [Example 12, (1R,3aS,3bS,10aR,10bS,11S,12aS)-1-{[(fluoromethyl)sulfanyl]carbonyl}-7-(6-fluoropyridin-3-yl)-11-hydroxy-5,10a,12a-trimethyl-1,2,3,3a,3b,7,- 10,10a,10b,11,12,12a-dodecahydro-cyclopenta[5,6]naphtho[1,2-f]indazol-1-yl cyclopropanecarboxylate] it is 8.80.
The figure for `C[C@]12Cc3cnn(-c4ccc(F)nc4)c3C=C1C=C[C@@H]1[C@@H]2[C@@H](O)C[C@@]2(C)[C@H]1CC[C@]2(OC(=O)C1CC1)C(=O)SCF` [Example 8, (1R,3aS,3bS,10aR,10bS,11S,12aS)-1-{[(fluoromethyl)sulfanyl]carbonyl}-7-(6-fluoropyridin-3-yl)-11-hydroxy-10a,12a-dimethyl-1,2,3,3a,3b,7,10,10a,10b,11,12,12a-dodecahydrocyclopenta[5,6]naphtho [1,2-f]indazol-1-yl cyclopropanecarboxylate] is 8.85.

The record behind these values is patent US20100256105A1, “NOVEL COMPOUNDS” (AstraZeneca R&D, priority 2009, published 2010).
